Like-named read-outs stand apart in the source and are kept apart here. Starred links: 1 amine or outer side, 2 acyl side, 3 side chain; linkers in the order of their positions; H or OH if unused. Non-standard residues stand in square brackets, D forms with d. Residues, ends and D or L forms follow the SMILES beside them. Groups on a side chain read outwards from the residue. *: point of attachment. C20 diacid = O=C(O)CCCCCCCCCCCCCCCCCCC(=O)*; γGlu = O=C(O)[C@H](CCC(=O)[*:2])N[*:1]; NMeI = CC[C@H](C)[C@H](NC)C(=O)O; AEEA = NCCOCCOCC(=O)O
What was measured:
[1] = cynomolgus monkey, in vivo, iv, 96.4 nmol/kg, T1/2
Protocol: Plasma concentrations of compounds were determined by LC/MS methods. Each method measured the intact compound; peptide plus linked time extension. […] Two distinct layers were formed upon centrifugation with the compound and the IS located in the supernatant layer. An aliquot of the supernatant (80 μl) was transferred to a Thermo Protein Precipitation Plate with water (150 μl) and formic acid (25 μl) followed by mixing. A final 31% acetonitrile in 10% formic acid sample (10 μl) was loaded onto a Supelco Analytical Discovery BIO Wide Pore C5-3 column (5 cm×1 mm, 3 μm). The column effluent was directed into a Thermo Q-Exactive mass spectrometer for detection and quantitation.
(§1) Male Cynomolgus monkeys were administered a single subcutaneous dose or intravenous dose (96.4 nmol/kg) of a compound described herein in 20 mM Tris-HCl Buffer (pH 7) at a volume of 1 mL/kg. Blood was collected from each animal at 2, 6, 24, 48, 72, 96, 168, 240, 336, 408, and 504 hours postdose for pharmacokinetic characterization.

[2] = rat, in vivo, sc, 150 nmol/kg
Protocol: (§2) Plasma concentrations of compounds were determined by LC/MS methods. Each method measured the intact compound; peptide plus linked time extension. For each assay, the compound and an analog, used as an internal standard (IS), were extracted from 100% mouse, rat or monkey plasma (25 μl) using acetonitrile. Two distinct layers were formed upon centrifugation with the compound and the IS located in the supernatant layer. An aliquot of the supernatant (80 μl) was transferred to a Thermo Protein Precipitation Plate with water (150 μl) and formic acid (25 μl) followed by mixing. A final 31% acetonitrile in 10% formic acid sample (10 μl) was loaded onto a Supelco Analytical Discovery BIO Wide Pore C5-3 column (5 cm×1 mm, 3 μm). The column effluent was directed into a Thermo Q-Exactive mass spectrometer for detection and quantitation.
Male Sprague Dawley rats were administered a single subcutaneous dose (50 or 150 nmol/kg) of a compound described herein in 20 mM Tris-HCl Tris Buffer (pH 8) at a volume of 0.26 or 0.77 mL/kg.

remnant kidney mice = assay: Mouse remnant kidney model of hypertensive nephropathy (Example 2, 9 weeks); type: in vivo; conditions: all groups
Protocol: A mouse remnant kidney model (“remnant”) involving surgical reduction of ¾ of the entire renal mass is used as a preclinical model of hypertensive renal disease (Kidney Int. 64(1):350-5, (2003)).
Surgical reduction of renal mass (N=40 mice) or sham surgery is performed by Taconic, Inc. in male 129S6 mice at 8-9 weeks of age (obtained by Taconic, Inc.). Randomization into 5 equivalent groups of 8 remnant kidney mice is done at 15 weeks post-surgery by urine albumin to creatinine ratio (ACR) and body weight.
Study duration is 9 weeks. After 2 weeks of dosing, a necropsy is done on all groups except the 144 nmol/kg group of Example 2 which continues to be monitored for ACR for another 7 weeks to determine the durability of the effects of the compound of Example 2 on urine ACR. […]
Body weight is determined at baseline and at termination with a Metler Toledo Balance. […] Serum is analyzed for BUN and creatinine on a Roche Hitachi Modular Analytics P analyzer with reagents from Roche. […]
Urine albumin and creatinine are determined on a Roche Hitachi Modular Analytics P analyzer. Urine creatinine is determined with the Creatinine Plus reagent by Roche. […]
All data are analyzed with JMP v.8.0 software (SAS Institute). […] All other data were evaluated by ANOVA with log transformed data if the data were skewed and a Students unpaired t test. […]

in vivo [3] = conditions: male, cynomolgus monkey, sc, 50 nmol/kg
Protocol: as §2, §1
Male Cynomolgus monkeys were also administered a single subcutaneous dose (50 nmol/kg) of a compound described herein in 20 mM Tris-HCl Buffer (pH 8) at a volume of 0.26 mL/kg. Blood was collected from each animal at 3, 6, 12, 24, 48, 72, 96, 120, 168, 192, 240, 336, 408, and 504 hours postdose for pharmacokinetic characterization.

[4] = tested on: UniNx db/db AAV renin mice; assay: Uninephrectomized db/db AAV renin model of diabetic nephropathy; type: in vivo
Protocol: The uninephrectomized db/db adeno-associated viral (AAV) renin model represents a progressive model of diabetic kidney disease with hypertension driven by an AAV renin transgene (Am J Physiol Regul Integr Comp Physiol. 309(5):R467-74, (2015)).
The uninephrectomy (UniNx) surgery on female db/db mice on a C57BLKS/J background (obtained from Harlan Laboratories) is performed by Harlan Laboratories at 4 weeks of age with removal of the right kidney to accelerate the diabetic kidney disease. Animals are received at 5 weeks of age and housed in micro-isolator cages at 3 mice per cage and are on a 12 hour light/dark cycle. All db/db mice are fed ad libitum with Purina special diet 5008 and allowed free access to autoclaved water.
Mice are acclimated for 7 weeks prior to administration of AAV Renin (5×10^9 GC) intravenously by the retro-orbital sinus to induce persistent hypertension. Randomization by urine albumin to creatinine ratio (ACR), blood glucose and body weight is done at 15 weeks of age (a point at which renal disease and pathology are established in this model based on observations) into 2 groups of 12 saline control mice and 33 mice to receive Lisinopril treatment.
Dosing with Lisinopril (30 mg/L) begins at 16 weeks of age. After 2 weeks of Lisinopril treatment, the 33 mice are randomized by urine ACR, blood glucose and body weight into 4 groups (one group of 9 mice and 3 groups of 8 mice).
In the 4 groups of UniNx db/db AAV renin mice receiving Lisinopril treatment, either 0.9% physiological saline for injection (“saline control” N=9) or different dose levels of Example 4 (7.2, 24 or 72 nmol/kg, N=8 per dose level) are dosed at 0.2 mL s.c. per injection beginning at 18 weeks of age and continued 3 times weekly for 12 weeks. Albumin and creatinine are measured in urine with a Roche Hitachi Modular Analytics P analyzer with Roche reagents for detection of albumin and creatinine.
For all the groups, the parameters measured are body weight, kidney weight, heart weight, urine albumin to creatinine ratio, serum creatinine and renal pathology scores for mesangial matrix expansion, glomerular fibrosis, tubular regeneration, interstitial inflammation and interstitial fibrosis.
At 15 and 27 weeks of age, blood (30 to 50 uL) from all the UniNx db/db AAV Renin mice is obtained from the tail vein and dropped onto a Precision PCx blood glucose sensor electrode strip (Abbott Laboratories) for blood glucose determination with a MediSense Precision PCx glucometer (Abbott Laboratories). Blood glucose data is used to block the UniNx db/db mice into equivalent groups. Body weight is determined at baseline and at termination with a Metler Toledo Balance. The heart and kidney are removed at necropsy and weighed on a Metler Toledo Balance. Blood (500 ul) is collected from the retro-orbital sinus at termination under isoflurane anesthesia. The clotted blood is centrifuged to obtain serum. Serum is analyzed for creatinine on a Roche Hitachi Modular Analytics P analyzer with reagents from Roche.
Urine is collected by a spot collection method to collect urine over a 2-4 hr time period. An individual mouse is placed on top of a 96 well polypropylene microplate and then covered by a Plexiglas chamber with holes for breathing but no access to food or water. At the end of the time period, the urine is removed from the plate with a micropipette and placed on ice, centrifuged and subjected to albumin and creatinine analysis. Urine albumin, creatinine and glucose are determined on a Roche Hitachi Modular Analytics P analyzer. Urine creatinine is determined with the Creatinine Plus reagent by Roche. For urine albumin, the Roche Microalbumin assay is modified to adapt the calibration curve for measuring urine albumin in mice. Albuminuria was defined as albumin to creatinine ratio (ACR).
Kidneys are removed at study termination, fixed in formalin and processed for paraffin sectioning according to standard methodology. […]

in vivo [5] = conditions: male, CD-1, mouse, sc, 350 nmol/kg
Protocol: as §2
Male CD-1 mice were administered a single subcutaneous dose (350, 386 or 388 nmol/kg) of a compound described herein in 20 mM Tris-HCl Tris Buffer (pH 7 or 8) at a volume of 0.05 or 0.06 mL/animal. Blood was collected at 6, 12, 24, 48, 72, 96, 120 and 168 hours postdose for pharmacokinetic characterization (101).

Row | Compound | half-life [1] [h] | CL/F ([2]; CL/F) [mL/h/kg] | half-life ([2]; T1/2) [h] | deaths during the study (remnant kidney mice) | CL/F (in vivo [3]; CL/F) [mL/h/kg] | half-life (in vivo [3]; T1/2) [h] | deaths over the course of the study ([4]; Lisinopril plus 7.2 nmol/kg Example 4 group (N=8)) | deaths over the course of the study ([4]; Lisinopril plus 24 nmol/kg Example 4 group (N=8)) | deaths over the course of the study ([4]; Lisinopril plus 72 nmol/kg Example 4 group (N=8)) | CL/F (in vivo [5]) [mL/h/kg] | half-life (in vivo [5]) [h]
1 | CC[C@H](C)[C@H](NC(C)=O)C(=O)N[C@H](C(=O)N[C@@H](CC(C)C)C(=O)N[C@@H](CO)C(=O)N[C@@H](CC(C)C)C(=O)N[C@@H](CC(=O)O)C(=O)N[C@H](C(=O)N1CCC[C@H]1C(=O)N[C@H](C(=O)NCC(=O)N[C@@H](CC(C)C)C(=O)N[C@@H](CC(C)C)C(=O)N[C@@H](CCC(N)=O)C(=O)N[C@H](C(=O)N[C@@H](CC(C)C)C(=O)N[C@@H](CC(C)C)C(=O)N[C@@H](CCC(=O)O)C(=O)N[C@@H](CCC(N)=O)C(=O)N[C@@H](CCC(=O)O)C(=O)N[C@@H](CCCCN)C(=O)N[C@@H](CCC(N)=O)C(=O)N[C@@H](CCC(=O)O)C(=O)N[C@@H](CCCCN)C(=O)N[C@@H](CCC(=O)O)C(=O)N[C@@H](CCCCN)C(=O)N[C@@H](CCC(N)=O)C(=O)N[C@@H](CCC(N)=O)C(=O)N[C@@H](C)C(=O)N[C@@H](CCCCNC(=O)COCCOCCNC(=O)COCCOCCNC(=O)CC[C@H](NC(=O)CC[C@H](NC(=O)CCCCCCCCCCCCCCCCCCC(=O)O)C(=O)O)C(=O)O)C(=O)N[C@H](C(=O)N[C@@H](CC(N)=O)C(=O)N[C@@H](C)C(=O)N[C@@H](CCC(N)=O)C(=O)N[C@H](C(=O)N[C@@H](CC(C)C)C(=O)N[C@@H](C)C(=O)N[C@@H](CCC(N)=O)C(=O)N[C@H](C(N)=O)C(C)C)[C@@H](C)CC)[C@@H](C)O)[C@@H](C)CC)[C@@H](C)CC)C(C)C)C(C)C [Example 2] (Ac-IVLSLDVPIGLLQILLEQEKQEKEKQQAK([AEEA-AEEA-γGlu-γGlu-C20 diacid])TNAQILAQV-NH2) | 124 | 4.7 | 34 | no deaths | – | – | – | – | – | – | –
2 | CC[C@H](C)[C@H](NC)C(=O)N[C@H](C(=O)N[C@@H](CC(C)C)C(=O)N[C@@H](CO)C(=O)N[C@@H](CC(C)C)C(=O)N[C@@H](CC(=O)O)C(=O)N[C@H](C(=O)N1CCC[C@H]1C(=O)N[C@H](C(=O)NCC(=O)N[C@@H](CC(C)C)C(=O)N[C@@H](CC(C)C)C(=O)N[C@@H](CCC(N)=O)C(=O)N[C@H](C(=O)N[C@@H](CC(C)C)C(=O)N[C@@H](CC(C)C)C(=O)N[C@@H](CCC(=O)O)C(=O)N[C@@H](CCC(N)=O)C(=O)N[C@@H](CCC(=O)O)C(=O)N[C@@H](CCCCN)C(=O)N[C@@H](CCC(N)=O)C(=O)N[C@@H](CCC(=O)O)C(=O)N[C@@H](CCCCN)C(=O)N[C@@H](CCC(=O)O)C(=O)N[C@@H](CCCCN)C(=O)N[C@@H](CCC(N)=O)C(=O)N[C@@H](CCC(N)=O)C(=O)N[C@@H](C)C(=O)N[C@@H](CCCCNC(=O)COCCOCCNC(=O)COCCOCCNC(=O)CC[C@H](NC(=O)CC[C@H](NC(=O)CCCCCCCCCCCCCCCCCCC(=O)O)C(=O)O)C(=O)O)C(=O)N[C@H](C(=O)N[C@@H](CC(N)=O)C(=O)N[C@@H](C)C(=O)N[C@@H](CCC(N)=O)C(=O)N[C@H](C(=O)N[C@@H](CC(C)C)C(=O)N[C@@H](C)C(=O)N[C@@H](CCC(N)=O)C(=O)N[C@H](C(N)=O)C(C)C)[C@@H](C)CC)[C@@H](C)O)[C@@H](C)CC)[C@@H](C)CC)C(C)C)C(C)C [Example 4] (H-[NMeI]VLSLDVPIGLLQILLEQEKQEKEKQQAK([AEEA-AEEA-γGlu-γGlu-C20 diacid])TNAQILAQV-NH2) | – | – | – | – | 0.97 | 79 | 1 | 3 | 3 | 6.8 | 18

Reference: patent US10894817B2, “Fatty acid modified urocortin-2 analogs for the treatment of diabetes and chronic kidney disease” (priority 2016, dated 2021)
